PubChem BioAssay (NCI)
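Grown in 96-well plates, cells were treated for 48 hours with each compound at five concentrations. Insufficient inhibition: endpoint recorded as highest concentration tested. GI50: concentration for 50% inhibition of growth. TGI marks complete inhibition of growth.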

How the values were obtained:
Experiment in all cases: NCI anticancer screen, dose series, 48 h
[1] = test system: COLO 205 colon
[2] = test system: HCT-15 colon
[3] = test system: HL-60(TB) leukemia
[4] = test system: M14 melanoma
[5] = test system: OVCAR-4 ovarian
[6] = test system: SNB-19 CNS
[7] = test system: U251 CNS
[8] = test system: SNB-75 CNS
[9] = test system: MDA-MB-231 breast
[10] = test system: T-47D breast

Row | SMILES | TGI [1] [µM] | TGI [2] [µM] | TGI [3] [µM] | TGI [4] [µM] | TGI [5] [µM] | TGI [6] [µM] | TGI [7] [µM] | TGI [8] [µM] | GI50 [1] [µM] | GI50 [2] [µM] | GI50 [3] [µM] | GI50 [4] [µM] | GI50 [5] [µM] | GI50 [6] [µM] | GI50 [8] [µM] | GI50 [7] [µM] | GI50 [9] [µM] | TGI [9] [µM] | GI50 [10] [µM] | TGI [10] [µM]
1 | N/N=C1\C(=O)N(C2CCCCCC2)C(=O)C1C(=O)NC1CCCCCC1 (configuration not stated) | > 100 | 82.7 | 45.1 | > 100 | > 100 | > 100 | 31.7 |  |  |  |  |  |  |  |  |  |  |  |  | 
2 | COC12CCC(=O)C=C1c1ccccc1N2C(C)=O (configuration not stated) | > 100 | > 100 | > 100 |  | > 100 | > 100 | > 100 | > 100 |  |  |  |  |  |  |  |  |  |  |  | 
3 | Cc1nn[n-]n1.N.N.N.N.N.[Cl-].[Co+3] | > 100 | > 100 | > 100 | > 100 | > 100 | > 100 | > 100 | > 100 | > 100 | > 100 | > 100 | > 100 | > 100 | > 100 | > 100 | > 100 |  |  |  | 
4 | Cc1ccccc1NC(=O)c1cc(-c2ccc([N+](=O)[O-])cc2)nc(=S)[nH]1 | > 100 | > 100 | > 100 | > 100 | > 100 | > 100 | > 100 |  |  |  |  |  |  |  |  |  |  |  |  | 
5 | N#Cc1ccccc1C(Cl)(Cl)c1cnccn1 | > 100 |  | 70.2 |  | > 100 | > 100 | > 100 |  |  |  |  |  |  |  |  |  |  |  |  | 
6 | CCNC(=O)COc1ccc(Br)cc1Br | > 100 | > 100 | > 100 | > 100 | > 100 | > 100 | > 100 | > 100 |  |  |  |  |  |  |  |  |  |  |  | 
7 | CC1/C=C/[C@@]2(C)CCC(C(C)(C)O)C2C(O)C[C@](C)(O)/C=C/C1 (some centres not stated) | > 100 | > 100 | > 100 | > 100 | > 100 | > 100 | > 100 | > 100 |  |  |  |  |  |  |  |  |  |  |  | 
8 | CC1=C[C@H]2c3c([nH]c4ccccc34)C(c3c[nH]c4ccccc34)[C@H]2CC1 (some centres not stated) | 13 | 18.8 | 17.6 | 19.2 |  |  | 16.3 | 19 |  |  |  |  |  |  |  |  |  |  |  | 
9 | COc1ccccc1C#Cc1ccccc1C#CCCCCO | 37.7 | 48.9 | > 100 |  | 63.1 | 32.8 | 37.3 | 26.2 | 18.3 | 19.9 | 50.8 |  | 23.2 | 16.7 | 12 | 18.7 | 12.4 | 27.1 | 18.5 | 65.8
10 | CC1=Nc2c(ccc3c2C(=O)c2ccccc2C3=O)NC(c2cccc3c2CCC3)C1 (configuration not stated) | > 100 | > 100 | > 100 | > 100 | > 100 | > 100 | > 100 | > 100 |  |  |  |  |  |  |  |  |  |  |  | 
11 | CCCNC(=O)C1C(=O)C(=O)N(CCC)C1=O (configuration not stated) | > 100 | > 100 |  | > 100 | > 100 | > 100 | > 100 | > 100 |  |  |  |  |  |  |  |  |  |  |  | 
